Reference: patent publication US4447452A, “N[(2-Naphthalenyl)thioxomethyl]glycine derivatives” (Ayerst, McKenna & Harrison Inc., priority 1981, dated 1984)

Columns and labels:
[1] = biological target: T1, aldose reductase (Bos taurus, UniProt P16116); experiment: in vitro aldose reductase inhibition (modified Hayman and Kinoshita procedure, enzyme from bovine lens); type: biochemical; conditions: read-out: % Inhibition at Different Molar Concentrations (in vitro); for inhibition at 10 µM: 10^-5 molar; for inhibition at 1 µM: 10^-6 molar; for inhibition at 0.1 µM: 10^-7 molar
T1 construct: preparation of the enzyme from bovine lens; from tissue; host or cells: bovine lens
Experimental: In the present case the procedure of Hayman and Kinoshita is modified in that the final chromatography step is omitted in the preparation of the enzyme from bovine lens.
The following results were obtained when the compounds of this invention were evaluated in the above in vitro test.

[2] = system: aldose reductase; conditions: literature report; cited from earlier work

| inhibition at 10 µM [1] | inhibition at 1 µM [1] | inhibition at 0.1 µM [1] | SMILES | inhibition of aldose reductase (in words) [2] |
| --- | --- | --- | --- | --- |
| 87% | 70% | 21% | CN(CC(=O)O)C(=S)c1ccc2c(Br)cccc2c1 [CH3 5-Br, N-[(5-bromo-2-naphthalenyl)thioxomethyl]-N-methylglycine] |  |
|  |  |  | O=C1NC(=O)[C@@]2(CCOc3ccc(F)cc32)N1 [sorbinil, (S)-6-Fluoro-2,3-dihydrospiro(4H-1-benzopyran-4,4'-imidazolidine)-2',5'-dione] | aldose reductase inhibiting properties |
|  |  |  | O=C(O)CN1C(=O)c2cccc3cccc(c23)C1=O [1,3-Dioxo-1H-benz[de]isoquinoline-2(3H)-acetic acid] | effective inhibitor of aldose reductase |
| 84% | 60% | 19% | CN(CC(=O)O)C(=S)c1ccc2cc(Br)ccc2c1 [CH3 6-Br, N-[(6-Bromo-2-naphthalenyl)thioxomethyl]-N-methylglycine] |  |
